Experimental data from patent US11377425B1, “Small molecule modulators of IL-17” (LEO Pharma A/S, priority 2018, dated 2022).

Biological target: T1, human IL-17AA (Homo sapiens, UniProt Q16552)
T1 construct: host or cells: HEK (human embryonic kidney) cells
T1 sequence (Q16552 24-155): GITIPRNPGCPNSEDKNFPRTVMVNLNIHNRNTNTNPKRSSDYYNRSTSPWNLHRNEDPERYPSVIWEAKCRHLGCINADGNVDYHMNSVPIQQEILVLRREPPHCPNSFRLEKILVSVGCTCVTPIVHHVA
Experiment: IL-8 release assay in human epithelial keratinocytes adult (HEKa)
Type: cell-based
Conditions: HEKa cells, 3 ng/mL HEK-human IL-17AA + 10 ng/mL human TNFalpha; read-out: Rel EC50 IL-8 release assay
Outline: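 Adult human epidermal keratinocytes stimulated 68-72 h at 37 °C with 3 ng/mL HEK-derived human IL-17AA plus 10 ng/mL TNF-alpha (final) in the presence of compound; TNF-alpha alone defines 100% inhibition. Secreted IL-8 measured by HTRF as percent of controls; relative IC50/Emax from four-parameter fit (r^2>0.9), cytotoxicity by PrestoBlue.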

Row | Compound | EC50
1 | Cc1ncn(C)c1-c1ccc(NC(=O)[C@@H](NC(=O)c2ccnn2C)C2CCCCCC2)cc1 [Example 336, N-[(1S)-1-cycloheptyl-2-[4-(3,5-dimethylimidazol-4-yl)anilino]-2-oxo-ethyl]-2-methyl-pyrazole-3-carboxamide] | 100 to 1000 nM
2 | Cc1ncn(C)c1-c1ccc(NC(=O)[C@@H](NC(=O)c2ccnn2C)C(c2ccccc2)c2ccccc2)cc1 [Example 338, N-[(1S)-1-benzhydryl-2-[4-(3,5-dimethylimidazol-4-yl)anilino]-2-oxo-ethyl]-2-methyl-pyrazole-3-carboxamide] | 100 to 1000 nM
3 | Cn1cncc1-c1ccc(NC(=O)[C@@H](NC(=O)c2ccnn2C)[C@H]2CCc3ccc(Br)cc32)cc1 [Example 341, N-[(1S)-1-[(1S)-6-bromoindan-1-yl]-2-[4-(3-methylimidazol-4-yl)anilino]-2-oxo-ethyl]-2-methyl-pyrazole-3-carboxamide] | 100 to 1000 nM
4 | Cn1cncc1-c1ccc(NC(=O)[C@H](Cc2cc(C#N)ccc2Cl)NC(=O)c2ccnn2C)cc1 [Example 342, N-[(1S)-1-[(2-chloro-5-cyano-phenyl)methyl]-2-[4-(3-methylimidazol-4-yl)anilino]-2-oxo-ethyl]-2-methyl-pyrazole-3-carboxamide] | > 1000 nM
5 | Cn1cncc1-c1ccc(NC(=O)[C@@H](NC(=O)c2ccnn2C)[C@@H]2CCCc3ccc(Br)cc32)cc1 [Example 344, N-[(1S)-1-[(1R)-7-bromotetralin-1-yl]-2-[4-(3-methylimidazol-4-yl)anilino]-2-oxo-ethyl]-2-methyl-pyrazole-3-carboxamide] | > 1000 nM
6 | Cn1cncc1-c1ccc(NC(=O)[C@H](Cc2cc(Br)ccc2Cl)NC(=O)c2ccnn2C)cc1 [Example 345, N-[(1S)-1-[(5-bromo-2-chloro-phenyl)methyl]-2-[4-(3-methylimidazol-4-yl)anilino]-2-oxo-ethyl]-2-methyl-pyrazole-3-carboxamide] | 100 to 1000 nM
7 | Cn1cncc1-c1ccc(NC(=O)[C@@H](NC(=O)c2ccnn2C)C(c2ccccc2)c2ccccc2)cc1 [Example 346, N-[(1S)-1-benzhydryl-2-[4-(3-methylimidazol-4-yl)anilino]-2-oxo-ethyl]-2-methyl-pyrazole-3-carboxamide] | 100 to 1000 nM
8 | Cn1cncc1-c1ccc(NC(=O)[C@@H](NC(=O)C2(F)CC2)C(c2ccccc2)c2ccccc2)cc1 [Example 347, N-[(1S)-1-benzhydryl-2-[4-(3-methylimidazol-4-yl)anilino]-2-oxo-ethyl]-1-fluoro-cyclopropanecarboxamide] | 100 to 1000 nM
9 | Cn1cnnc1-c1ccc(NC(=O)[C@@H](NC(=O)c2cnnn2-c2ccccc2)C2CCCCC2)cc1 [Example 348, N-[(1S)-1-cyclohexyl-2-[4-(4-methyl-1,2,4-triazol-3-yl)anilino]-2-oxo-ethyl]-3-phenyl-triazole-4-carboxamide] | > 1000 nM
10 | CC(C)n1nccc1C(=O)N[C@H](C(=O)Nc1ccc(-c2nncn2C)cc1)C1CCCCCC1 [Example 349, N-[(1S)-1-cycloheptyl-2-[4-(4-methyl-1,2,4-triazol-3-yl)anilino]-2-oxo-ethyl]-2-isopropyl-pyrazole-3-carboxamide] | 100 to 1000 nM
11 | Cn1cnnc1-c1ccc(NC(=O)[C@@H](NC(=O)c2ccnn2C)C2CCCCCC2)cc1 [Example 350, N-[(1S)-1-cycloheptyl-2-[4-(4-methyl-1,2,4-triazol-3-yl)anilino]-2-oxo-ethyl]-2-methyl-pyrazole-3-carboxamide] | > 1000 nM
12 | CC(C)n1nccc1C(=O)N[C@H](C(=O)Nc1ccc(-c2nncn2C)cc1)C1CCCCC1 [Example 351, N-[(1S)-1-cyclohexyl-2-[4-(4-methyl-1,2,4-triazol-3-yl)anilino]-2-oxo-ethyl]-2-isopropyl-pyrazole-3-carboxamide] | 100 to 1000 nM
13 | Cn1cnnc1-c1ccc(NC(=O)[C@@H](NC(=O)C2(F)CC2)C(c2ccccc2)c2ccccc2)cc1 [Example 353, N-[(1S)-1-benzhydryl-2-[4-(4-methyl-1,2,4-triazol-3-yl)anilino]-2-oxo-ethyl]-1-fluoro-cyclopropanecarboxamide] | > 1000 nM
14 | Cn1cnnc1-c1ccc(NC(=O)[C@@H](NC(=O)c2ccnn2C)C(c2ccccc2)c2ccccc2)cc1 [Example 354, N-[(1S)-1-benzhydryl-2-[4-(4-methyl-1,2,4-triazol-3-yl)anilino]-2-oxo-ethyl]-2-methyl-pyrazole-3-carboxamide] | > 1000 nM
15 | COc1n[nH]c(C)c1-c1ccc(NC(=O)[C@@H](NC(=O)c2ccnn2C)C2CCCCC2)cc1 [Example 358, N-[(1S)-1-cyclohexyl-2-[4-(5-methoxy-3-methyl-1H-pyrazol-4-yl)anilino]-2-oxo-ethyl]-2-methyl-pyrazole-3-carboxamide] | > 1000 nM
16 | Cc1ncoc1-c1ccc(NC(=O)[C@@H](NC(=O)c2ccnn2C(C)C)C(C2CC2)C2CC2)cc1 [Example 361, N-[(1S)-1-(dicyclopropylmethyl)-2-[4-(4-methyloxazol-5-yl)anilino]-2-oxo-ethyl]-2-isopropyl-pyrazole-3-carboxamide] | 100 to 1000 nM
17 | Cc1ncn(C)c1-c1ccc(NC(=O)[C@@H](NC(=O)c2ccnn2C(C)C)C(C2CC2)C2CC2)cc1O [Example 363, N-[(1S)-1-(dicyclopropylmethyl)-2-[4-(3,5-dimethylimidazol-4-yl)-3-hydroxy-anilino]-2-oxo-ethyl]-2-isopropyl-pyrazole-3-carboxamide] | < 100 nM
18 | CC(C)n1nccc1C(=O)N[C@H](C(=O)Nc1ccc(-c2c(C3(O)CC3)cnn2C)cc1)C(C1CC1)C1CC1 [Example 368, N-[(1S)-1-(dicyclopropylmethyl)-2-[4-[4-(1-hydroxycyclopropyl)-2-methyl-pyrazol-3-yl]anilino]-2-oxo-ethyl]-2-isopropyl-pyrazole-3-carboxamide] | 100 to 1000 nM
19 | CCn1nccc1C(=O)N[C@H](C(=O)Nc1ccc(-n2cnc(C)c2C)cc1)C(C1CC1)C1CC1 [Example 369, N-[(1S)-1-(dicyclopropylmethyl)-2-[4-(4,5-dimethylimidazol-1-yl)anilino]-2-oxo-ethyl]-2-ethyl-pyrazole-3-carboxamide] | 100 to 1000 nM

Second part, the compound after the results:

Row | EC50 | Compound
20 | 100 to 1000 nM | Cc1ncn(C)c1-c1ccc(NC(=O)[C@@H](NC(=O)c2ccnn2C)C2CCCCC2)cc1 [Example 337, N-[(1S)-1-cyclohexyl-2-[4-(3,5-dimethylimidazol-4-yl)anilino]-2-oxo-ethyl]-2-methyl-pyrazole-3-carboxamide]
21 | > 1000 nM | Cn1cncc1-c1ccc(NC(=O)[C@@H](NC(=O)c2ccnn2C)[C@@H]2CCc3ccc(Br)cc32)cc1 [Example 340, N-[(1S)-1-[(1R)-6-bromoindan-1-yl]-2-[4-(3-methylimidazol-4-yl)anilino]-2-oxo-ethyl]-2-methyl-pyrazole-3-carboxamide]
22 | > 1000 nM | Cn1cncc1-c1ccc(NC(=O)[C@@H](NC(=O)c2ccnn2C)C2CCCCC2)cc1 [Example 343, N-[(1S)-1-cyclohexyl-2-[4-(3-methylimidazol-4-yl)anilino]-2-oxo-ethyl]-2-methyl-pyrazole-3-carboxamide]
23 | > 1000 nM | Cn1cnnc1-c1ccc(NC(=O)[C@@H](NC(=O)c2ccnn2C)C2CCCCC2)cc1 [Example 352, N-[(1S)-1-cyclohexyl-2-[4-(4-methyl-1,2,4-triazol-3-yl)anilino]-2-oxo-ethyl]-2-methyl-pyrazole-3-carboxamide]
24 | 100 to 1000 nM | CCOc1n[nH]c(C)c1-c1ccc(NC(=O)[C@@H](NC(=O)c2ccnn2C)C2CCCCC2)cc1 [Example 359, N-[(1S)-1-cyclohexyl-2-[4-(5-ethoxy-3-methyl-1H-pyrazol-4-yl)anilino]-2-oxo-ethyl]-2-methyl-pyrazole-3-carboxamide]
25 | < 100 nM | Cc1noc(C)c1-c1ccc(NC(=O)[C@@H](NC(=O)c2ccnn2C(C)C)C(C2CC2)C2CC2)cc1 [Example 360, N-[(1S)-1-(dicyclopropylmethyl)-2-[4-(3,5-dimethylisoxazol-4-yl)anilino]-2-oxo-ethyl]-2-isopropyl-pyrazole-3-carboxamide]
26 | 100 to 1000 nM | CCn1nccc1C(=O)N[C@H](C(=O)Nc1ccc(-c2c(C)ncn2C)c(O)c1)C(C1CC1)C1CC1 [Example 362, N-[(1S)-1-(dicyclopropylmethyl)-2-[4-(3,5-dimethylimidazol-4-yl)-3-hydroxy-anilino]-2-oxo-ethyl]-2-ethyl-pyrazole-3-carboxamide]
27 | < 100 nM | CCn1nccc1C(=O)N[C@H](C(=O)Nc1ccc(-c2c(C)cnn2C)c(O)c1)C(C1CC1)C1CC1 [Example 364, N-[(1S)-1-(dicyclopropylmethyl)-2-[4-(2,4-dimethylpyrazol-3-yl)-3-hydroxy-anilino]-2-oxo-ethyl]-2-ethyl-pyrazole-3-carboxamide]
28 | < 100 nM | Cc1cnn(C)c1-c1ccc(NC(=O)[C@@H](NC(=O)c2ccnn2C(C)C)C(C2CC2)C2CC2)cc1O [Example 365, N-[(1S)-1-(dicyclopropylmethyl)-2-[4-(2,4-dimethylpyrazol-3-yl)-3-hydroxy-anilino]-2-oxo-ethyl]-2-isopropyl-pyrazole-3-carboxamide]
29 | 100 to 1000 nM | Cc1cnn(C)c1-c1ccc(NC(=O)[C@@H](NC(=O)c2ccnn2C(C)CO)C(C2CC2)C2CC2)cc1O (stereo partly drawn) [Example 366, N-[(1S)-1-(dicyclopropylmethyl)-2-[4-(2,4-dimethylpyrazol-3-yl)-3-hydroxy-anilino]-2-oxo-ethyl]-2-(2-hydroxy-1-methyl-ethyl)pyrazole-3-carboxamide]
30 | < 100 nM | Cc1cnn(C)c1-c1ccc(NC(=O)[C@@H](NC(=O)c2ccnn2C(C)C)C(C2CC2)C2CC2)cc1 [Example 367, N-[(1S)-1-(dicyclopropylmethyl)-2-[4-(2,4-dimethylpyrazol-3-yl)anilino]-2-oxo-ethyl]-2-isopropyl-pyrazole-3-carboxamide]
